Data reported in patent US7259145B2, “Mechanically activated channel blocker” (The Research Foundation of State University of New York, priority 2004, dated 2007).
Entries after “also recorded” stand apart in the source; their conditions may differ. Non-standard residues stand in square brackets, D forms with d. No end group written: not given here.

What was measured:
[1] = test system: stretch-activated channels (SACs); experiment: SAC currents, outside-out patch of chick heart cells; assay type: cell-based
Experimental: (§1) Primary reactive rat astrocytes cultures (passages 4 to 10) were prepared as previously described. Primary cultures of chick heart cells were prepared from 11-day-old embryos as previously described (Bett et al., J. Membr. Biol. 173, 237-254, 2000).
(§2) Outside-out patches were formed using pipettes containing 140 mM KCl, 2 mM MgCl2, 10 mM HEPES and 0.5 mM EGTA (as K ? salts). SAC currents were recorded using an Axopatch 200B patch clamp, with pClamp9 software and a Digidata 1322A acquisition system (Axon Instruments). Pressure was applied to the patch pipette with an HSPC-1 pressure clamp, and the patch was perfused using an ALA MP285 perfusion system (ALA Scientific Instruments). GsMTx4 or analog was dissolved in the perfusion solution: 140 mM NaCl, 10 mM Na-HEPES, 5 mM KCl, and 1 mM MgCl2. All experiments were repeated […] times.

[2] = test system: stretch-activated channels (SACs); experiment: SAC currents, outside-out patch of rat astrocytes (pressure clamp); assay type: cell-based; settings: for inhibition of SACs (averaged current): 5 μM, rat astrocyte outside-out patch, FIG. 2
Experimental: as §1, §2

[3] = test system: gA channels; experiment: Gramicidin (gA) channel gating in lipid bilayer; assay type: biochemical
Experimental: FIG. 3 is a representation of the effect of GsMTx4 on gA channels. a, Current traces before and after addition of 200 nM GsMTx4 to both sides of a bilayer doped with chain-shortened des-Val 1-Gly 2-gA (gA2(13)) and [Ala 1]gA (AgA(15)) (numbers in parenthesis denote number of residues in the sequence): gA2 is the enantiomer of gA20. b, c, Single-channel currents (b) and lifetimes (c) as a function of GsMTx4 concentration (see Methods). d, Average lifetime (t) as a function of channel length, helix sense and identity of the aromatic at the channel/solution interface. gA2(13) and AgA(15) as above, AgA2(15) is [D-Ala 1]gA2, gT is [Tyr9,11,13,15]gA (ref. 21). 200 nM GsMTx4; columns and error bars denote mean±s.d. (n≧3).
The effect of L-GsMTx-4 on gA gating was first determined. gA channels are dimers formed by the transbilayer association of monomers in opposing monolayers (O'Connell et al., Science 250, 1256-1259, 1990). Channel formation is generally associated with local bilayer thinning, which makes gA monomer ⇄ dimer equilibrium and thus the channel lifetime and appearance rate sensitive to bilayer thickness, elastic moduli and curvature stress. Thus, if GsMTx4 binds to the lipid bilayer, one would expect it to also alter the lipid packing adjacent to the channel and thus the gA gating kinetics and, because it is cationic decrease the channel current.

[4] = test system: cationic SACs; settings: chick heart, rat astrocytes and skeletal muscle, human smooth muscle; cited from earlier work
[5] = test system: cationic SACs; experiment: Inhibition and gating of cationic SACs in vertebrate cell types (affinity, apparent rates); assay type: cell-based
Experimental: GsMTx4 inhibits ubiquitous cationic SACs in a variety of vertebrate cell types (200-600 nM, for example, chick heart, rat astrocytes and skeletal muscle, and human smooth muscle) (Gottlieb et al., Current Drug Targets—CNS & Neurological Disorders 3:287-295, 2004) despite the fact that they have different kinetic properties and presumably different structure. […] While not intending to be bound by any particular theory, it is believed, based on predictions using the Poisson-Boltzmann models, that this effect is seen when GsMTx4 is located within about 1.5 nm of the channel vestibule.
To determine if GsMTx4 functions by altering bilayer properties, using the tryptophan fluorescence (Ladokhin et al., supra) of GsMTx4, we measured its binding to large unilamellar lipid vesicles. The partition coefficient, defined as ([GsMTx4]bil/[Lipid])/([GsMTx4]aq/[H2O]) (where the subscripts denote the bilayer and aqueous phases, respectively, for example see White et al., Methods Enzymol. 295, 62-87, 1998), was ˜3×10^5 corresponding to an adsorption coefficient of 10 ^−3 cm (defined as ^2bil/[GsMTx4 ]aq, where ^2bil denotes the surface density, in moles per unit area). […] This has two implications. First, the intrinsic affinity between a lipid-bound GsMTx4 and the channel could be quite modest and yet account for the observed KD (Kim et al., Biophys. J. 60, 135148, 1991). Second, the mean surface density of GsMTx4 is sufficiently high that fast exchange (50 ms) between the bulk bilayer and the lipids adjacent to the channel can alter the local (and global) bilayer mechanical properties. The apparent association and dissociation rates for SAC effects (Ka≈10^6 M^−1 s^−1, KD≈0.2 s^−1) are consistent with such a fast exchange (as well as slower, more specific binding).

[6] = Binding to large unilamellar lipid vesicles by tryptophan fluorescence; assay type: physicochemical
Experimental: Fluorescence measurements were performed as described by Ladokhin et al. (Anal. Biochem. 285, 235245, 2000) with an AMJNCO-Bowman Series 2 spectrofluorimeter. The excitation and emission wavelengths were 280 nm (8 nm band pass, 08 polarizer) and 346 nm (16 nm band pass, 908 polarizer). Large unilamellar vesicles of egg lecithin (Avanti Polar Lipids) were formed by extrusion. Tryptophan (Sigma) and GsMTx4 titration experiments were performed in 8 mM phosphate buffer containing 1 mM EGTA at pH 7. Three spectra were collected at each lipid concentration with both tryptophan and GsMtx4 (both at 30μM). After background subtraction, the mean fluorescence intensity at each lipid concentration was corrected for vesicle scattering (Ladokhin et al., Anal. Biochem, 285, 235245, 2000) and normalized to the zero lipid fluorescence intensity. The results are reported assuming a vesicle diameter of 130 nm, and area per lipid in the monolayer of 0.7 nm2.
To determine if GsMTx4 functions by altering bilayer properties, using the tryptophan fluorescence (Ladokhin et al., supra) of GsMTx4, we measured its binding to large unilamellar lipid vesicles. […]

[7] = test system: TRPC1; experiment: Stretch activated channels in CHO cells transfected to express TRPC1; assay type: cell-based; settings: CHO cells expressing TRPC1
[8] = 5 mM GsMTx4 [sic], chick heart outside-out patch

GsMTx4
reduction of average inward currents [1, 8]: 70% | reduction of average outward currents [1, 8]: 90% | unitary current amplitude, inward ([1]; 5 mM GsMTx4 [sic], 250 mV pipette potential as printed, control 1.74 pA): 1.58 pA | unitary current amplitude, outward ([1]; 5 mM GsMTx4 [sic], pipette potential printed 150 mV / 50 mV, control 1.10 pA): 1.08 pA | change in outward unitary current amplitude ([1]; in presence of GsMTx4): no change; also recorded: no observable effect | reduction in inward unitary current amplitude ([1]; in presence of GsMTx4): 10% | suppression of average inward current ([2]; 5 μM GsMTx4 (b40 also prints 5 mM), outside-out astrocyte patch): 80% | open state dwell time distribution ([2]; 5 μM GsMTx4, data not shown): not affected | inhibition of SACs (averaged current) [2]: both inhibit SACs | membrane tension required for SAC activation ([2]; applied to extracellular face, FIGS. 1a and 1b): increasing the membrane tension required for activation | gA single-channel current ([3]; FIG. 3b): reduces the single-channel current | increase in gA channel appearance rate ([3]; GsMTx4, FIG. 3): 10-25 fold | increase in gA open channel lifetime ([3]; GsMTx4, FIG. 3c): approximately 2 fold | concentration inhibiting cationic SACs [4]: 200 to 600 nM | apparent association rate for SAC effects (Ka) [5]: ≈ 10^6 M^−1 s^−1 | apparent dissociation rate for SAC effects (KD) [5]: ≈ 0.2 s^−1 | Kd ([5]; SAC gating, read-out: effective KD for gating): 500 nM | adsorption coefficient ([6]; corresponding to the partition coefficient): 10 ^−3 cm | partition coefficient ([GsMTx4]bil/[Lipid])/([GsMTx4]aq/[H2O]) ([6]; large unilamellar lipid vesicles, pH 7): ~3×10^5 | inhibition of stretch activated channels [7]: inhibited stretch activated channels

D-GsMTx4: All-D-amino-acid enantiomer of GsMTx4, SEQ ID NO:1 GCLEFWWKCNPNDDKCCRPKLKCSKLFKLCNFSF-amide (G[dC][dL][dE][dF][dW][dW][dK][dC][dN][dP][dN][dD][dD][dK][dC][dC][dR][dP][dK][dL][dK][dC][dS][dK][dL][dF][dK][dL][dC][dN][dF][dS][dF]-NH2; not fully specified (bridges); printed as GCLEFWWKCNPNDDKCCRPKLKCSKLFKLCNFSF-amide; ends and bridges not checked; also: three disulfides after oxidative folding, pairing not given here)
inhibition of SACs (averaged current) [2]: equivalent efficacy to the wild type L-form; also recorded: inhibit SACs with similar efficacy to GsMTx4; also recorded: at least as potent and may be more potent than L-GsMTx-4 | increase in gA channel appearance rates ([3]; 400 nM D-GsMTx4): 10 fold | increase in gA channel lifetime ([3]; 400 nM D-GsMTx4): 4 fold
